Measured values published in article PMC2702281, “HLA-A*0201-restricted CTL epitope of a novel osteosarcoma antigen, papillomavirus binding factor” (Journal of Translational Medicine, 2009).

What was measured:
HLA-A*0201 molecules = HLA-A*0201 molecules (Homo sapiens, UniProt P04439, D140Y/D185E/D98H/E176V/E277Q/G131W/G231S/I119V/I121R/I166T/I218V/L300P/L318F/N151K/N90K/P208A/P217A/Q86G/Q94H/R138H/R169H/T345S); assay: T2 cell surface HLA class I stabilization assay; format: cell-based; conditions: for HLA-peptide binding affinity (%MFI increase ± SD): peptide 50 μg/ml, T2 cells, anti-HLA-A2 mAb BB7.2 staining, triplicate, mean ± SD
[1] = tested on: PBF A2.2-specific CD8+ T cells; assay: LD/MLPC followed by tetramer-based frequency analysis; format: cell-based, human
Description: Prior to frequency analysis and cytotoxicity assays, PBMC of patients were subjected to mixed lymphocyte peptide culture under limiting dilution conditions (LD/MLPC) according to the method described by Karanikas et al. with some modifications. LD/MLPC aims to seed at most one CTL precursor cell per well and induces proliferation of the precursor cell by subsequent mixed lymphocyte peptide culture. For this purpose, the appropriate number of PBMC and CD8^+ cells per well is considered to be 1 × 10^5–2 × 10^5 [17, 24].
PBMCs were used as a source of responder cells in the initial five subjects (Patients 1 and 2 and three healthy donors) and CD8^+ cells were used in the following three patients (Patients 3–5) [see Additional file 2].
PBMC obtained from peripheral blood samples (50 ml) of Patients 1 and 2 and three healthy donors were suspended in AIM-V (Invitrogen Corp., Carlsbad, CA) supplemented with 1% human serum (HS). These cells were incubated for 60 min at room temperature with peptide PBF A2.2 (50 μg/ml). Peptide-pulsed PBMC were seeded at 2 × 10^5 cells/200 μl/well into round-bottom 96-microwell plates in AIM-V with 10%HS, IL-2 (20 U/ml; a kind gift from Takeda Chemical Industries, Ltd., Osaka Japan) and IL-7 (10 ng/ml; R&D Systems, Minneapolis, Minnesota, USA), and incubated. On day 7, half of the medium was replaced with fresh AIM-V containing IL-2, IL-7 and the same peptides. The cell cultures were maintained by adding fresh AIM-V containing IL-2. On days 14–21, they were subjected to tetramer-based frequency analysis.
PBMC obtained from Patients 3–5 were separated into CD8^+ cells and CD8^- cells using magnetic anti-CD8 microbeads (Miltenyi Biotec, Gladbach, Germany). CD8^- cells were pulsed with the PBF A2.2 peptide for 60 min. Half of the CD8^- cells were cryopreserved at -80°C for the second stimulation. CD8^+ cells (1.0–2.1 × 10^5/well) and irradiated PBF A2.2 peptide-pulsed CD8^- cells (1–5 × 10^5/well) were cocultured in 48-well cell culture plates in 500 μl of AIM-V with 10%HS, IL-2 and IL-7. On day 7, the second stimulation was performed by adding irradiated peptide-pulsed CD8^- cells to each culture well in 500 μl of AIM-V with 10%HS, IL-2 and IL-7. On days 13–23, they were subjected to tetramer-based frequency analysis.
An FITC-conjugated HLA-A*0201/HIV tetramer (here termed the control tetramer) and a PE-conjugated HLA-A*0201/PBF A2.2 tetramer (A2/PBF A2.2 tetramer) were constructed by Medical & Biological Laboratories Co., Ltd. (Tokyo, Japan). PBMCs from patients were stimulated with the PBF A2.2 peptide by using the LD/MLPC procedure as described above. From each microwell containing 200 μl of the microculture pool, 100 μl was transferred to a V-bottom microwell and washed. To the spin-down pellets, the control tetramer and A2/PBF A2.2 tetramer (10 nM in 25 μl of PBS) were added in combination and incubated for 15 min at room temperature. Then a PE-Cy5-conjugated anti-CD8 antibody (eBioscience, San Diego, California, USA) was added (dilution of 1:30 in 25 μl of PBS containing the control tetramer and A2/PBF A2.2 tetramer) and incubated for another 15 min. The cells were washed in PBS twice, fixed with 0.5% formaldehyde, and analyzed by flow cytometry using FACScan and CellQuest software (Becton Dickinson, San Jose, California, USA). CD8^+ living cells were gated and the cells labeled with the A2/PBF A2.2 tetramer were referred to as tetramer-positive cells. Tetramer-positive cells in each well are theoretically derived from a single CTL precursor, regardless of the number (percentage) of tetramer-positive cells. Accordingly, the number of tetramer-positive wells represents the number of CTL precursors. The frequency of anti-PBF A2.2 CTLs was evaluated using the following calculation: (number of tetramer-positive wells)/[(total number of tested wells) × (initial number of CD8+ cells per well)].

[2] = three tetramer-positive patients with osteosarcoma

Description for T2 cells: CTL-mediated cytolytic activity was measured by a 6 h-^51Cr-release assay [25]. […] T2 cells were treated with or without peptides at the indicated concentrations for 1 h at room temperature after ^51Cr-labeling. […] Target cells were labeled with 100 μCi of ^51Cr for 1 h at 37°C. The labeled target cells were suspended in RPMI without serum and seeded to microwells (2–5 × 10^3 cells/well).
CTL 5A9 and CTL clones were used as the effector cells. The effector cells were transferred to V-bottom microwells, suspended in AIM-V and mixed with the labeled target cells. After a 6 h incubation period at 37°C, the ^51Cr level in the culture supernatant was measured using an automated gamma counter. The percentage of specific cytotoxicity was calculated as follows: the percentage of specific ^51Cr release = 100 × (experimental release – spontaneous release)/(maximum release – spontaneous release).

Sequence	HLA-peptide binding affinity (%MFI increase ± SD) (HLA-A*0201 molecules)	further results
YQALPSFQI [Peptide A2.9]	10.2 ± 8.2 %MFI increase	
MMAAMVLTSL [Peptide A2.5]	10.5 ± 12.0 %MFI increase	
GLVEQHSWM [Peptide A2.4]	1.8 ± 9.9 %MFI increase	
FETDPDPFLL [Peptide A2.6]	22.5 ± 9.6 %MFI increase	
KVLRSIVGI [Peptide A2.10]	4.4 ± 9.9 %MFI increase	
WLLEQKLQV [Peptide A2.1]	38.8 ± 15.5 %MFI increase	
SMTGLPLSAL [Peptide A2.8]	-1.5 ± 2.5 %MFI increase	
ALPSFQIPV [Peptide A2.2]	74.5 ± 6.6 %MFI increase	%MFI increase in peptide titration experiments (HLA-A*0201 molecules; HLA class I stabilization assay at indicated concentrations, Fig. 1): dose-dependent increases of %MFI; %MFI increase compared among the peptides (HLA-A*0201 molecules; HLA class I stabilization assay, ten PBF-derived peptides): highest %MFI increase among the peptides; Cytotoxicity of five CTL clones (1B1, 1D7, 1E1, 1F4, 1F7) against peptide-pulsed T2 cells (T2 cells): All five CTL clones lysed PBF A2.2 peptide-pulsed T2 cells; Frequency of CTL precursors calculated as 2/5.4 × 10^6 ([1]; Patient 4, 36 wells at 1.5 × 10^5 CD8+ cells per well, tetramer analysis on day 21, Fig. 2): 3.7 × 10^-7; Patients in whom A2/PBF A2.2 tetramer-positive T cells were detected ([1]; five HLA-A*0201+ patients with PBF-positive osteosarcoma): three of the five patients; Frequencies of the PBF A2.2-specific CD8+ T cells, average ([1]; three healthy donors): 2 × 10^-7; Frequencies of the PBF A2.2-specific CD8+ T cells, range ([1]; three healthy donors): 1 × 10^-7 to 3 × 10^-7; Frequencies of the PBF A2.2-specific CD8+ T cells, average [1, 2]: 2 × 10^-6; Frequencies of the PBF A2.2-specific CD8+ T cells, range [1, 2]: 2 × 10^-7 to 5 × 10^-6
FETDPDPFL [Peptide A2.7]	8.2 ± 19.1 %MFI increase	
FQPGQKVYV [Peptide A2.3]	2.7 ± 9.4 %MFI increase	
